Results as given in ChEMBL document CHEMBL4825718, “Novel Dihydrooxadiazinones as PDE3 Inhibitors for Treating Cancer” (ACS Med Chem Lett, 2021).

What was measured:
IGR-37 cell line = test: Antiproliferative activity against human IGR37 cells assessed as cell growth inhibition after 72 hrs by Cell titer glo assay; format: functional, cell-based; conditions: IGR-37, 72 h
[1] = biological target: cGMP-inhibited 3',5'-cyclic phosphodiesterase 3A (Homo sapiens, UniProt Q14432); test: Inhibition of human full length PDE3A expressed in Sf9 cells measured after 60 mins by [3H]-cAMP Scintillation proximity assay
[2] = biological target: cGMP-inhibited 3',5'-cyclic phosphodiesterase 3B (Homo sapiens, UniProt Q13370); test: Inhibition of human full length PDE3B expressed in Sf9 cells measured after 60 mins by [3H]-cAMP Scintillation proximity assay
HeLa = test: Antiproliferative activity against human HeLa cells assessed as cell growth inhibition after 72 hrs by Cell titer glo assay; format: functional, cell-based
SK-MEL3 = test: Antiproliferative activity against human SK-MEL3 cells assessed as cell growth inhibition after 72 hrs by Cell titer glo assay; format: functional, cell-based; conditions: SK-MEL3, 72 h

cGMP-inhibited 3',5'-cyclic phosphodiesterase 3B, sequence (Q13370 whole entry): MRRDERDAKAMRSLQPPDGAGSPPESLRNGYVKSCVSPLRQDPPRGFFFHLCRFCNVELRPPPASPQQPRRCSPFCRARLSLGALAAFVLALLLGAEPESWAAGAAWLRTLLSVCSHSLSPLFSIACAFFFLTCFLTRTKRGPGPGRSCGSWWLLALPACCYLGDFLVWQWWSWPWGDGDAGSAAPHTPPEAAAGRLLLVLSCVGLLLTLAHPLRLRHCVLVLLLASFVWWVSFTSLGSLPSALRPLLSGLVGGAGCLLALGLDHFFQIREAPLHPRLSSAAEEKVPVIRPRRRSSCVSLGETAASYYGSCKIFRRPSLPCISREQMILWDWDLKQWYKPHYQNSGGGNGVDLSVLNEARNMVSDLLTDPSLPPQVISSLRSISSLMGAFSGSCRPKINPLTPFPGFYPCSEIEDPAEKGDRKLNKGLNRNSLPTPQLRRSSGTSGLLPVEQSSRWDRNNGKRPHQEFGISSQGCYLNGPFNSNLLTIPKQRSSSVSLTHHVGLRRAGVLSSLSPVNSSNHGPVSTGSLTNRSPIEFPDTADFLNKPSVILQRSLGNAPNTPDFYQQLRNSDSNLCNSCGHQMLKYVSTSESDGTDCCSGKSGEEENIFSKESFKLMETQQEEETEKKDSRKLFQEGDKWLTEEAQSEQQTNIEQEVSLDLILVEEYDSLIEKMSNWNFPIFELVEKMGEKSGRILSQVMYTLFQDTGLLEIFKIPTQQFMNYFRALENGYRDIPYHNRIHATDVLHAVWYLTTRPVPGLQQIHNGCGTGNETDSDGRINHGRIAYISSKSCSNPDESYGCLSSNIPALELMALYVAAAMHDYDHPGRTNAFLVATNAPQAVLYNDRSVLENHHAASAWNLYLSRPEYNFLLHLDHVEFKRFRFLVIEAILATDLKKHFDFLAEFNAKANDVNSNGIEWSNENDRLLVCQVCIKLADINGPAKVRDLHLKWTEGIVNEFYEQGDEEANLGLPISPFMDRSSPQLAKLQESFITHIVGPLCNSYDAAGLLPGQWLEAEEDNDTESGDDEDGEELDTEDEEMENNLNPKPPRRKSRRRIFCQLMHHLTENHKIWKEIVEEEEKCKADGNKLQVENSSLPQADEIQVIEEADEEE
cGMP-inhibited 3',5'-cyclic phosphodiesterase 3A, sequence (Q14432 whole entry): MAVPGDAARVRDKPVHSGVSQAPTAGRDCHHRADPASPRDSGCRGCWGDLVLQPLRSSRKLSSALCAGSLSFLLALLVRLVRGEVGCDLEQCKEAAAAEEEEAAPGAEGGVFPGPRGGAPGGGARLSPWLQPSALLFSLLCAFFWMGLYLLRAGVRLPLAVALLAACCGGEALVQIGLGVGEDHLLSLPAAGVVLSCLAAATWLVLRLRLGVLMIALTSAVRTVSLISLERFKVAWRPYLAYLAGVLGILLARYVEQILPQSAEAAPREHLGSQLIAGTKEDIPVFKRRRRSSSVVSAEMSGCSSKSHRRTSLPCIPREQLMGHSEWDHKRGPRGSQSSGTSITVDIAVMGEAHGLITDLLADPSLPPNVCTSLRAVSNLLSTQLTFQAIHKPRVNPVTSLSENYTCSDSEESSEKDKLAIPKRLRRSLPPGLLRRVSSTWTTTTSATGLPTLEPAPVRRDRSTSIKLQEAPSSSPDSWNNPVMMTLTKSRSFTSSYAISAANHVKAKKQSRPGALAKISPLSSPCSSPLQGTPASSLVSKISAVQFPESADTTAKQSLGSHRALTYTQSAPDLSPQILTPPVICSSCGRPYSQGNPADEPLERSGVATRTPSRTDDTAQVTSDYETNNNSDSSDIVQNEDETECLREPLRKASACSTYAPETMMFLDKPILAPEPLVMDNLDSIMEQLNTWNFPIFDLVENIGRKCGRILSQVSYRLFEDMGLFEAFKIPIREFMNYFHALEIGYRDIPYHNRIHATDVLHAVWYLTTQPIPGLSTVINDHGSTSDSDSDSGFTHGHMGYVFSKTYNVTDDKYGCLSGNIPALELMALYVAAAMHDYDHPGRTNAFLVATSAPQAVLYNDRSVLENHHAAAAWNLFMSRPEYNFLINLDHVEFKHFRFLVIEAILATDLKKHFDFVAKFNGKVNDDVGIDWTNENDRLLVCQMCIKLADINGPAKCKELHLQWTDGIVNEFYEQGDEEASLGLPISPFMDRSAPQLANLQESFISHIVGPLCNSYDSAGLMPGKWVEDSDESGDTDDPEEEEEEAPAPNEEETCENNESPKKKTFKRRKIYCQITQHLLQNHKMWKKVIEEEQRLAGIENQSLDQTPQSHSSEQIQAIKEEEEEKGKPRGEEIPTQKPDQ

Row | IC50 [1] [pM] | IC50 [2] [pM] | IC50 (HeLa) [pM] | IC50 (SK-MEL3) [pM] | Structure (SMILES) | IC50 (IGR-37 cell line) [pM]
1 | 7000 | 5000 | 100 | 300 | C[C@@H]1OC(=O)NN=C1c1ccc(OCCC(F)(F)F)c(C(F)(F)F)c1 | 300
2 | 8000 | 5000 | 100 | 300 | CCCOc1ccc(C2=NNC(=O)O[C@H]2C)cc1C(F)(F)F | 300
3 | – | – | 100 | 300 | COCCOc1ccc(C2=NNC(=O)O[C@H]2C)cc1C(F)(F)F | 200

Second part, the compound before the results:

Row | Structure (SMILES) | IC50 [1] [pM] | IC50 [2] [pM] | IC50 (HeLa) [pM] | IC50 (SK-MEL3) [pM] | IC50 (IGR-37 cell line) [pM]
4 | C[C@@H]1OC(=O)NN=C1c1ccc(OC[C@@H](C)F)c(C(F)(F)F)c1 | 9000 | 9000 | 200 | 500 | 300
5 | CCCCOc1ccc(C2=NNC(=O)O[C@H]2C)cc1C(F)(F)F | – | – | 200 | 600 | 500
6 | CCOc1ccc(C2=NNC(=O)O[C@H]2C)cc1C(F)(F)F | 6000 | 7000 | 300 | 600 | 500
